Data from EP4596574A1, “GLP-1/GCG/GIP TRIPLE-RECEPTOR AGONIST AND USE THEREOF” (Sunshine Lake Pharma Co., Ltd., priority 2022, dated 2024).
Marks after values point to notes of the source that are not given here.

How the values were obtained:
[1] = In vivo efficacy evaluation in db/db mouse model (blood glucose); design: species or system db/db mice; settings: db/db mice
Protocol: Blood glucose was tested before each administration.

[2] = Long-term repeated administration in diet-induced obese C57BL/6 mice (DIO); assay type: in vivo, C57/BL6 mice
Source text: Experimental methods: C57/BL6 mice were randomly divided into a normal group (NFD) and a model group (HFD) at the fifth week of age. The normal group was fed with ordinary maintenance feed, while the other groups were fed with high-fat feed D12492. The body weight and food intake of mice were monitored every 3 weeks. After 16 weeks of feeding, the body weights of mice in the model group and the normal group were (49.0±2.3) g and (31.0±2.0) g, respectively, and the difference between the two groups was statistically significant. […] Body weight and food intake were measured before each administration. After 3 weeks of administration, an intraperitoneal glucose tolerance test was performed. The mice were slaughtered and samples were collected 72 h after the last administration. The liver weight was recorded, and the liver pathological conditions and blood biochemical indexes of each group were tested.

[3] = Glucose tolerance assessment in normal C57BL/6 mice (Example 4); assay type: in vivo; settings: 3 nmol/kg s.c. single dose, 24 h after administration
Protocol: (§1) Twelve hours after the single administration, the animals were fasted for 12 hours and had free access to water. Blood was collected from the tail vein to determine the basal blood glucose level of each group of animals, and then 2 g/kg glucose solution was injected intraperitoneally. Blood glucose was tested at 15, 30, 60, and 90 min after glucose administration. The blood glucose concentration-time curve was drawn according to the blood glucose values measured at different time points, and the AUC0~90min of each dose group was calculated as shown in Table 4 and Figure 1. Table 4: Effects of single administration of HEC-PT74, HEC-PT75, HEC-PT77, HEC-PT78, HEC-PT80, and HEC-PT82 on glucose tolerance in normal C57 mice 24 h after administration

[4] = Glucose tolerance assessment in normal C57BL/6 mice (Example 5); assay type: in vivo; settings: 3 nmol/kg s.c. single dose, 24 h after administration
Protocol: as §1, with “Table 5” for “Table 4”, “Figure 2.” for “Figure 1.”, “Table 5:” for “Table 4:”, “of HEC-PT86, HEC-PT96, HEC-PT112, HEC-PT113, HEC-PT114,” for “of HEC-PT74, HEC-PT75, HEC-PT77, HEC-PT78, HEC-PT80,”, “and HEC-PT119” for “and HEC-PT82”

[5] = 10 nmol/kg s.c. once every 3 days, D7
[6] = 10 nmol/kg s.c. once every 3 days, D10
[7] = 10 nmol/kg s.c. once every 3 days, D13
[8] = 10 nmol/kg s.c. once every 3 days, D16
[9] = 10 nmol/kg s.c. once every 3 days, D19
[10] = 10 nmol/kg s.c. once every 3 days, D22
[11] = 10 nmol/kg s.c. once every 3 days, D25
[12] = 10 nmol/kg s.c. once every 3 days, D28
[13] = long-term administration 10 nmol/kg, 72 h after the last administration
[14] = long-term administration 10 nmol/kg, blood biochemical index
[15] = 15 min after 2 g/kg glucose i.p.
[16] = 30 min after 2 g/kg glucose i.p.
[17] = 60 min after 2 g/kg glucose i.p.
[18] = 90 min after 2 g/kg glucose i.p.
[19] = basal before 2 g/kg glucose i.p.
[20] = blood glucose AUC, 2 g/kg glucose i.p.

For `CC[C@H](C)[C@H](NC(=O)[C@H](CC(C)C)NC(=O)[C@H](Cc1c[nH]c2ccccc12)NC(=O)[C@H](CCC(N)=O)NC(=O)[C@@H](NC(=O)[C@H](Cc1ccccc1)NC(=O)[C@H](C)NC(=O)[C@H](CCCCNC(=O)COCCOCCNC(=O)COCCOCCNC(=O)CC[C@H](NC(=O)CCCCCCCCCCCCCCCCCCC(=O)O)C(=O)O)NC(=O)[C@H](CCC(N)=O)NC(=O)[C@H](C)NC(=O)[C@@H](NC(=O)[C@H](CCCCN)NC(=O)[C@H](CC(=O)O)NC(=O)[C@H](CC(C)C)NC(=O)C(C)(C)NC(=O)[C@@H](NC(=O)[C@H](CO)NC(=O)[C@H](Cc1ccc(O)cc1)NC(=O)[C@H](CC(=O)O)NC(=O)[C@H](CO)NC(=O)[C@@H](NC(=O)[C@H](Cc1ccccc1)NC(=O)[C@@H](NC(=O)CNC(=O)[C@H](CCC(=O)O)NC(=O)C(C)(C)NC(=O)[C@@H](N)Cc1ccc(O)cc1)[C@@H](C)O)[C@@H](C)O)[C@@H](C)CC)[C@@H](C)CC)C(C)C)C(=O)N[C@@H](C)C(=O)NCC(=O)NCC(=O)N1CCC[C@H]1C(=O)N[C@@H](CO)C(=O)N[C@@H](CO)C(=O)NCC(=O)N[C@@H](C)C(=O)N1CCC[C@H]1C(=O)N1CCC[C@H]1C(=O)N1CCC[C@H]1C(=O)N[C@@H](CO)C(N)=O` [LY3298176, tirzepatide, reference compound], the “Random blood glucose (mM) D0” value ([1]; 10 nmol/kg s.c. once every three days, D0 (before first dose)) was 26.1 ± 3.8 mM, the “Random blood glucose (mM) D3” value ([1]; 10 nmol/kg s.c. once every three days, D3) was 22.4 ± 3.7 mM and the “Random blood glucose (mM) D4” value ([1]; 10 nmol/kg s.c. once every three days, D4) was 22.1 ± 4.0 mM. The “Random blood glucose (mM) D5” value ([1]; 10 nmol/kg s.c. once every three days, D5) was 24.2 ± 3.9 mM, the “Random blood glucose (mM) D6” value ([1]; 10 nmol/kg s.c. once every three days, D6) was 25.3 ± 4.0 mM and the “Random blood glucose (mM) D7” value ([1]; 10 nmol/kg s.c. once every three days, D7) was 23.5 ± 2.6 mM. The “Random blood glucose (mM) D10” value ([1]; 10 nmol/kg s.c. once every three days, D10) was 18.5 ± 5.1 mM, the “Random blood glucose (mM) D13” value ([1]; 10 nmol/kg s.c. once every three days, D13) was 20.1 ± 5.8 mM and the “Random blood glucose (mM) D16” value ([1]; 10 nmol/kg s.c. once every three days, D16) was 18.6 ± 4.0 mM. The “Random blood glucose (mM) D19” value ([1]; 10 nmol/kg s.c. once every three days, D19) was 18.7 ± 3.8 mM, the “Random blood glucose (mM) D22” value ([1]; 10 nmol/kg s.c. once every three days, D22) was 16.2 ± 4.6 mM and the “Random blood glucose (mM) D25” value ([1]; 10 nmol/kg s.c. once every three days, D25) was 16.6±3.7^a mM. For the same compound, the “Random blood glucose (mM) 6 h” value ([1]; 10 nmol/kg s.c., 6 h) was 16.8 ± 5.0 mM, the “Random blood glucose (mM) 24 h” value ([1]; 10 nmol/kg s.c., 24 h) was 13.0 ± 6.7 mM and the “Random blood glucose (mM) 48 h” value ([1]; 10 nmol/kg s.c., 48 h) was 19.9 ± 5.6 mM. The “Cumulative food intake (g/pcs) D7” value [2, 5] was 10.2 g/pcs, the “Weight gain rate (%) D7” value [2, 5] was -15.4±2.9% and the “Cumulative food intake (g/pcs) D10” value [2, 6] was 13.0 g/pcs. The “Weight gain rate (%) D10” value [2, 6] was -19.6±3.2%, the “Cumulative food intake (g/each) D13” value [2, 7] was 16.6 g/each and the “Weight gain rate (%) D13” value [2, 7] was -24.3±6.4%. The “Cumulative food intake (g/each) D16” value [2, 8] was 22.1 g/each, the “Weight gain rate (%) D16” value [2, 8] was -23.4±5.1% and the “Cumulative food intake (g/each) D19” value [2, 9] was 27.9 g/each. The “Weight gain rate (%) D19” value [2, 9] was -26.0±7.3%, the “Cumulative food intake (g/each) D22” value [2, 10] was 34.2 g/each and the “Weight gain rate (%) D22” value [2, 10] was -26.7±7.7%. For the same compound, the “Cumulative food intake (g/each) D25” value [2, 11] was 40.6 g/each, the “Weight gain rate (%) D25” value [2, 11] was -27.7±7.0% and the “Cumulative food intake (g/each) D28” value [2, 12] was 48.1 g/each. For the same compound, the “Weight gain rate (%) D28” value [2, 12] was -28.2±7.3%, the “Cumulative food intake (g/each) D30” value ([2]; 10 nmol/kg s.c. once every 3 days, D30) was 51.9^a g/each and the “Weight gain rate (%) D31” value ([2]; 10 nmol/kg s.c. once every 3 days, D31) was -28.0±6.8^a %. The “Cumulative food intake (g/pcs) D0” value ([2]; 10 nmol/kg s.c., D0) was 2.7 g/pcs, the “Weight gain rate (%) D0” value ([2]; 10 nmol/kg s.c., D0) was 0.0±0.0% and the “Cumulative food intake (g/pcs) D1” value ([2]; 10 nmol/kg s.c., D1) was 3.0 g/pcs. For the same compound, the “Weight gain rate (%) D1” value ([2]; 10 nmol/kg s.c., D1) was -6.4±0.9%, the “Cumulative food intake (g/pcs) D2” value ([2]; 10 nmol/kg s.c., D2) was 3.8 g/pcs and the “Weight gain rate (%) D2” value ([2]; 10 nmol/kg s.c., D2) was -8.9±1.3%. The “Cumulative food intake (g/pcs) D3” value ([2]; 10 nmol/kg s.c., D3) was 5.1 g/pcs, the “Weight gain rate (%) D3” value ([2]; 10 nmol/kg s.c., D3) was -8.7±1.9% and the “Cumulative food intake (g/pcs) D4” value ([2]; 10 nmol/kg s.c., D4) was 7.4 g/pcs. The “Weight gain rate (%) D4” value ([2]; 10 nmol/kg s.c., D4) was -7.7±2.1%, the Liver/g [2, 13] was 1.0±0.1^a g and the Weight/g [2, 13] was 32.6±3.9^a g. For the same compound, the “ALT (U/L)” value [2, 14] was 30.9±3.1^a U/L, the “AST (U/L)” value [2, 14] was 110.3±17.6^a U/L and the “CHOL (mmol/L)” value [2, 14] was 3.3±0.5^a mmol/L. The “TRIGL (mmol/L)” value [2, 14] was 0.6±0.1^a mmol/L, the “Blood glucose level (mM) 15 min” value [3, 15] was 12.6 ± 3.5 mM and the “Blood glucose level (mM) 30 min” value [3, 16] was 9.5 ± 3.3 mM. The “Blood glucose level (mM) 60 min” value [3, 17] was 7.9 ± 1.4 mM, the “Blood glucose level (mM) 90 min” value [3, 18] was 6.5 ± 1.3 mM and the “Blood glucose level (mM) 0 min” value [3, 19] was 4.0 ± 0.8 mM. For the same compound, the AUC0-90 min [3, 20] was 768.2±171.6^a, the “Blood glucose level (mM) 15 min” value [4, 15] was 13.6 ± 3.1 mM and the “Blood glucose level (mM) 30 min” value [4, 16] was 9.9 ± 3.2 mM. For the same compound, the “Blood glucose level (mM) 60 min” value [4, 17] was 6.9 ± 0.9 mM, the “Blood glucose level (mM) 90 min” value [4, 18] was 7.2 ± 0.9 mM and the “Blood glucose level (mM) 0 min” value [4, 19] was 4.9 ± 1.0 mM. For the same compound, the AUC0-90 min [4, 20] was 776.9±125.6^a.
